The target in test [1] is T1, human recombinant histamine H1 receptor (Homo sapiens, UniProt P35367).
T1 construct: expressed in transfected cells; host or cells: CHO-K1
Briefly: Histamine H1 radioligand binding ([3H]Pyrilamine). To be noted: compound at 1 μM; 1.2 nM [3H]Pyrilamine; read-out: Binding data (Percentage inhibition) Histamine H1 (1 μM). On the procedure: To evaluate in radioligand binding assays the activity of compounds of the invention, human recombinant histamine H1 receptor expressed in Chinese hamster ovary (CHO) K1 cells (De Backer, M. et al, Biochem. Biophys. Res. Comm. 197(3):1601, 1993) in a modified Tris-HCl buffer (50 mM Tris-HCl, pH 7.4, 2 mM MgCl2, 100 mM NaCl, 250 mM Sucrose) was used. Compounds of the invention were incubated with 1.2 nM [^3H]Pyrilamine for 180 min at 25° C. Non-specific binding was estimated in the presence of 1 μM Pyrilamine. Receptor proteins were filtered and washed, the filters were then counted to determine [^3H]Pyrilamine specifically bound. Compounds were screened at 1 μM or lower, using 1% DMSO as vehicle. Biochemical assay results are presented as the percent inhibition of specific binding in Table 2.

Test [2] has as its target T2, human recombinant serotonin (5-Hydroxytryptamine) 5-HT7 receptor (Homo sapiens, UniProt P34969).
T2 construct: expressed in transfected cells; host or cells: CHO
Briefly: Serotonin 5-HT7 radioligand binding ([3H]LSD). To be noted: compound at 0.1 μM; read-out: Percentage inhibition of ligand binding, Serotonin (0.1 μM) 5-HT7. On the procedure: To evaluate in radioligand binding assays the activity of compounds of the invention, human recombinant serotonin (5-Hydroxytryptamine) 5-HT7 receptor expressed in Chinese hamster ovary (CHO) cells (Roth, B. et al, J. Pharmacol. Exp. Ther. 268:1403, 1994; Shen, Y. et al, J. Biol. Chem. 268:18200, 1993) in a modified Tris-HCl buffer (50 mM Tris-HCl, pH 7.4, 10 mM MgCl2, 0.5 mM EDTA) was used. Compounds of invention were incubated with 5.5 nM [^3H] Lysergic acid diethylamide (LSD) for 2 h at 25° C. Non-specific binding was estimated in the presence of 10 μM Serotonin (5-HT). Receptor proteins were filtered and washed, the filters were then counted to determine [^3H]LSD specifically bound. Compounds were screened at 1 μM or lower, using 1% DMSO as vehicle. Biochemical assay results are presented as the percent inhibition of specific binding in Table 4.

The target in test [3] is T3, human recombinant dopamine D2L receptor (Homo sapiens, UniProt P14416).
T3 construct: expressed in transfected cells; host or cells: CHO
T3 sequence (P14416 whole entry): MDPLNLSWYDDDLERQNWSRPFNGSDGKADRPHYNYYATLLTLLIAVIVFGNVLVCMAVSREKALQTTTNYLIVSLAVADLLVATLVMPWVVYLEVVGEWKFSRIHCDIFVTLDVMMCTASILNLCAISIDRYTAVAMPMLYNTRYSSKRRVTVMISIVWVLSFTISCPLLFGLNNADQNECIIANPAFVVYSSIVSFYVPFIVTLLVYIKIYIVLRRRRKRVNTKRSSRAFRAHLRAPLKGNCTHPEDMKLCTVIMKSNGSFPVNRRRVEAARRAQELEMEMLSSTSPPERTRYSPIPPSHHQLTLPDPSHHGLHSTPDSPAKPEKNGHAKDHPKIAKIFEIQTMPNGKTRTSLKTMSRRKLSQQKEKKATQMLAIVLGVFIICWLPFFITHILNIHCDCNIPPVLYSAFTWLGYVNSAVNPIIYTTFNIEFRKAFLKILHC
Nature of the test: Dopamine D2L radioligand binding ([3H]Spiperone). To be noted: compound at 1 μM; read-out: Percentage inhibition of ligand binding, Dopamine (1 μM) D2L. As for the experimental part:
To evaluate in radioligand binding assays the activity of compounds of the invention, human recombinant dopamine D2L receptor expressed in Chinese hamster ovary (CHO) cells (Grandy, D. et al, Proc. Natl. Acad. Sci. USA. 86:9762, 1989; Hayes, G. et al, Mol. Endocrinol. 6:920, 1992) in a modified Tris-HCl buffer (50 mM Tris-HCl, pH 7.4, 1.4 mM Ascorbic Acid, 0.001% BSA, 150 mM NaCl) was used. Compounds of the invention were incubated with 0.16 nM [^3H]Spiperonefor 120 min at 25° C. Non-specific binding was estimated in the presence of 10 μM Haloperidol. Receptor proteins were filtered and washed, the filters were then counted to determine [^3H]Spiperone specifically bound. Compounds were screened at 1 μM or lower, using 1% DMSO as vehicle. Biochemical assay results are presented as the percent inhibition of specific binding in Table 3.

The target in test [4] is T4, human recombinant serotonin (5-Hydroxytryptamine) 5-HT2C receptor (Homo sapiens, UniProt P28335).
T4 construct: expressed in transfected cells; host or cells: CHO-K1
T4 sequence (P28335 33-458): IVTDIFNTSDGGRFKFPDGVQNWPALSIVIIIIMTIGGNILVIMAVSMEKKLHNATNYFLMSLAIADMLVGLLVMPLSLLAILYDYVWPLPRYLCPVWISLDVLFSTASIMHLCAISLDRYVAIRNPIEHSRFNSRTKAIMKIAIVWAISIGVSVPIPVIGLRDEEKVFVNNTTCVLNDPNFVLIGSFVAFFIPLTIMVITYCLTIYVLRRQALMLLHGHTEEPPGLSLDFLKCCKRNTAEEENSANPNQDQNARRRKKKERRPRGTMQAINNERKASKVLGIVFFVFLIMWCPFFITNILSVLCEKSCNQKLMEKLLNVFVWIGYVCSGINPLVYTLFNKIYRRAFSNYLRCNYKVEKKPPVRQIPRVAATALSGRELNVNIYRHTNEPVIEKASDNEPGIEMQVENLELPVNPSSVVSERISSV
Nature of the test: Serotonin 5-HT2C radioligand binding ([3H]Mesulergine). The settings on record: compound at 0.1 μM; read-out: Percentage inhibition of ligand binding, Serotonin (0.1 μM) 5-HT2C. On the procedure:
To evaluate in radioligand binding assays the activity of compounds of the invention, human recombinant serotonin (5-Hydroxytryptamine) 5-HT2C receptor expressed in Chinese hamster ovary (CHO) K1 cells (Wolf, W. et al, J. Neurochem. 69:1449, 1997) in a modified Tris-HCl buffer (50 mM Tris-HCl, pH 7.4, 0.1% Ascorbic Acid, 10 μM Pargyline) was used. Compounds of the invention were incubated with 1 nM [^3H]Mesulergine for 60 min at 25° C. Non-specific binding was estimated in the presence of 1 μM Mianserin. Receptor proteins were filtered and washed, the filters were then counted to determine [^3H]Mesulergine specifically bound. Compounds were screened at 1 μM or lower, using 1% DMSO as vehicle. Biochemical assay results are presented as the percent inhibition of specific binding in Table 4.

Test [5] addresses T5, human recombinant serotonin (5-Hydroxytryptamine) 5-HT6 receptor (Homo sapiens, UniProt P50406).
T5 construct: expressed in transfected cells; host or cells: HeLa
Nature of the test: Serotonin 5-HT6 radioligand binding ([3H]LSD). The settings on record: compound at 0.1 μM; read-out: Percentage inhibition of ligand binding, Serotonin (0.1 μM) 5-HT6. As for the experimental part:
To evaluate in radioligand binding assays the activity of compounds of the invention, human recombinant serotonin (5-Hydroxytryptamine) 5-HT6 receptor expressed in human HeLa cells (Monsma, F. Jr. et al, Mol. Pharmacol. 43:320, 1993) in a modified Tris-HCl buffer (50 mM Tris-HCl, pH 7.4, 150 mM NaCl, 2 mM Ascorbic Acid, 0.001% BSA) was used. Compounds of the invention were incubated with 1.5 nM [3H]Lysergic acid diethylamide (LSD) for 120 min at 37° C. Non-specific binding was estimated in the presence of 5 μM Serotonin (5-HT). Receptor proteins were filtered and washed, the filters were then counted to determine [3H]LSD specifically bound. Compounds were screened at 1 μM or lower, using 1% DMSO as vehicle. Biochemical assay results are presented as the percent inhibition of specific binding in Table 4.

For test [6], the target named is T6, human recombinant serotonin (5-Hydroxytryptamine) 5-HT2A receptor (Homo sapiens, UniProt P28223).
T6 construct: expressed in transfected cells; host or cells: CHO-K1
T6 sequence (P28223 whole entry): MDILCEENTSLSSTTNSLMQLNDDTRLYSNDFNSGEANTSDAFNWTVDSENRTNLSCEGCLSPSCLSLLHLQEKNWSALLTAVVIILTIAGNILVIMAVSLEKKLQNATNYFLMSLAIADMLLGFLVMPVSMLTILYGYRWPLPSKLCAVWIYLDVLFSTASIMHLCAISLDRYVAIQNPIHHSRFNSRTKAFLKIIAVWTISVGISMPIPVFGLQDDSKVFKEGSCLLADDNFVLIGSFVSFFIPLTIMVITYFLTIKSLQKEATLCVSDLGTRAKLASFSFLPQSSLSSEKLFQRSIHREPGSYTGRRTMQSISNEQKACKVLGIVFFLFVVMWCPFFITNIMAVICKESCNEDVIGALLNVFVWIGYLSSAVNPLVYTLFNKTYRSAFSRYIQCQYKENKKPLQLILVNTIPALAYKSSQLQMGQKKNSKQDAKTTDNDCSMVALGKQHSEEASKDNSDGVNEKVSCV
Nature of the test: Serotonin 5-HT2A radioligand binding ([3H]Ketanserin). The settings on record: compound at 0.1 μM; read-out: Percentage inhibition of ligand binding, Serotonin (0.1 μM) 5-HT2A. As for the experimental part:
To evaluate in radioligand binding assays the activity of compounds of the invention, human recombinant serotonin (5-Hydroxytryptamine) 5-HT2A receptor expressed in Chinese hamster ovary (CHO) K1 cells (Bonhaus, D. et al, Br. J. Pharmacol. 115:622, 1995; Saucier, C. et al, J. Neurochem. 68:1998, 1997) in a 50 mM Tris-HCl buffer, pH 7.4, was used. Compounds of the invention were incubated with 0.5 nM [^3H]Ketanserin for 60 min at 25° C. Non-specific binding was estimated in the presence of 1 μM Mianserin. Receptor proteins were filtered and washed, the filters were then counted to determine [^3H]Ketanserin specifically bound. Compounds were screened at 1 μM or lower, using 1% DMSO as vehicle. Biochemical assay results are presented as the percent inhibition of specific binding in Table 4.

Molecules are shown by their SMILES.

Broadly, the inhibition is the drop in the measured response relative to a control, in per cent.

T1 sequence (P35367 whole entry): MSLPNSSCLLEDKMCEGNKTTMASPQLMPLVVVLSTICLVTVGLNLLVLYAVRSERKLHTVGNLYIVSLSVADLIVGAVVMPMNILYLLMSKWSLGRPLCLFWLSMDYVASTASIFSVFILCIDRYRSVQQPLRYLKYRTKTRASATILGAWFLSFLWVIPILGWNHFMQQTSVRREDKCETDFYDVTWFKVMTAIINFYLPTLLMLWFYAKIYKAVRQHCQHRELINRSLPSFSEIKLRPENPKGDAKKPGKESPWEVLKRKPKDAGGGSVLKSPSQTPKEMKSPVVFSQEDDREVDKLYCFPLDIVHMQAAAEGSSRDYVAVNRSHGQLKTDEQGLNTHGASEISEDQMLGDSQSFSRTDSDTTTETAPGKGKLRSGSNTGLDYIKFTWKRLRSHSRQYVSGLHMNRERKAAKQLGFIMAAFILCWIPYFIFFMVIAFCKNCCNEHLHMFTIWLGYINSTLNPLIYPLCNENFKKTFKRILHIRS
T2 sequence (P34969 whole entry): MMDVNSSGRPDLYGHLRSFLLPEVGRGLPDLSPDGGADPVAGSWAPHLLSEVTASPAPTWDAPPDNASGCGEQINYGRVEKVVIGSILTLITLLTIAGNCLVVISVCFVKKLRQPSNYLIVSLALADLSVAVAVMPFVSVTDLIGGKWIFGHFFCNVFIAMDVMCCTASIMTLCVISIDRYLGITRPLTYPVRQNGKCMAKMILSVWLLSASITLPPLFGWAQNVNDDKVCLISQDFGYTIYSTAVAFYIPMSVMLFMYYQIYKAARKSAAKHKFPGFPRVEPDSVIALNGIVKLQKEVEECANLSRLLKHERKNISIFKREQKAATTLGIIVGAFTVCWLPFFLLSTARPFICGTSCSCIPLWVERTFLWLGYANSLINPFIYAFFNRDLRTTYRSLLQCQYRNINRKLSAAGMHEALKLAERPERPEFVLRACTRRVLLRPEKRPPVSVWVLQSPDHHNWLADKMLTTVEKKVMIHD
T5 sequence (P50406 whole entry): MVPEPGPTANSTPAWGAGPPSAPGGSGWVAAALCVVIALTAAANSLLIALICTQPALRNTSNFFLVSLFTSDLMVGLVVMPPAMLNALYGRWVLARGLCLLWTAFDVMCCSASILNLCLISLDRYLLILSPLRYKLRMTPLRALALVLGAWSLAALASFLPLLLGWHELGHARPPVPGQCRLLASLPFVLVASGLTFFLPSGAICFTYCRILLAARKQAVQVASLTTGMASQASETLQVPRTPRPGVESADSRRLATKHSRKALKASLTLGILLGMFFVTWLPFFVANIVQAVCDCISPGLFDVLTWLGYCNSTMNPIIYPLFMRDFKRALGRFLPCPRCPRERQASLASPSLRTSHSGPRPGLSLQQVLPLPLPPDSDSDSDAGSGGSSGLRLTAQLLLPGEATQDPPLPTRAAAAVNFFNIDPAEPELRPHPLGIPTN

Regarding `CN1CCc2[nH]c3c(N(C)Cc4ccccc4)cccc3c2C1` [Compound 1, benzyl-methyl-(2-methyl-2,3,4,5-tetrahydro-1H-pyrido[4,3-b]indol-6-yl)-amine], the inhibition at 1 µM worked out at 6% in test [1] and 21% in test [3]. Further, the inhibition at 0.1 µM in test [2] was 9%; in test [4] it was 55%; in test [5] it was 44%; in test [6], 73%.

`Cc1cc(CCc2ccc(C)nc2)c2[nH]c3c(c2c1)CN(C)CC3` [Compound 2]: the inhibition at 1 µM in test [1] turned out to be 58%; in test [3], 6%. Further, the inhibition at 0.1 µM was found to be 17% in test [2], 36% in test [4], 4% in test [5] and 6% in test [6].

In the case of `CN1CCc2[nH]c3c(NCc4ccccc4)cccc3c2C1` [Compound 3], the inhibition at 1 µM in test [1] was 14%; in test [3], 19%. Also, the inhibition at 0.1 µM is 14% in test [2], 41% in test [4], 13% in test [5] and 40% in test [6].

On to `CN1CCc2[nH]c3c(NCc4ccncc4)cccc3c2C1` [Compound 4], for which the inhibition at 1 µM in test [1] was determined as 15%; in test [3], 5%. Besides, the inhibition at 0.1 µM is -10% in test [2], 7% in test [4], 2% in test [5] and -7% in test [6].

As to `Cc1cc(C#Cc2ccncc2)c2[nH]c3c(c2c1)CN(C)CC3` [Compound 5], the results for the inhibition at 1 µM in test [1] and in test [3] were 17% and 10%, respectively. In addition, the inhibition at 0.1 µM in test [2] came out at 45%; in test [4], 45%; in test [5], 30%; in test [6], 54%.

Turning to `Cc1cc(C#Cc2ccc(C)nc2)c2[nH]c3c(c2c1)CN(C)CC3` [Compound 6, 2,8-dimethyl-6-((6-methylpyridin-3-yl)ethynyl)-2,3,4,5-tetrahydro-1H-pyrido[4,3-b]indole], the inhibition at 1 µM in test [1] came out at 16%; in test [3], 7%. Further, the inhibition at 0.1 µM came out at 43% in test [2], 55% in test [4], 24% in test [5] and 41% in test [6].

The values above are taken from patent US9034865B2, “Pyrido [4,3-B] indole and pyrido [3,4-B] indole derivatives and methods of use” (Medivation Technologies, Inc., priority 2010, dated 2015).
